What was measured:
[1] = tested on: human colon tumors LS174T xenografted in Nude mice; assay: Antivascular activity in vivo (MRI, Dotarem entry into tumors); conditions: LS174T xenograft
Procedure: The antivascular effect of the molecule (I-1) was tested on mice bearing human tumors by comparison with the positive control DMXAA, according to the procedure described by Beauregard et al. (NMR Biomed., 2002, 15:99-105).
Thus, CD-1 Nude female mice were xenografted by subcutaneous injection of human colon tumoral cells (LS174T). The mice bearing tumors were then treated with 0.9% NaCl (carrier, 10 mL/kg), DMXAA (27.5 mg/kg) via an intraperitoneal route (IP) or the molecule (I-1) (45 mg/kg) via an intravenous route (IV). Three hours after administration, the mice were treated with the Dotarem® contrast agent intravenously (IV). The penetration of the contrast agent into the tumors was followed in real time by magnetic resonance imaging (MRI) and is expressed by an enhancement of the intensity of the signal in the tumors. Densitometric analysis of the acquired images allows determination of the maximum enhancement (Rmax) as well as the slope P0 corresponding to the entry rate of Dotarem® into the tumors.

[2] = tested on: human endothelial cells (EAhy926); assay: Formation of vascular tubes on Matrigel; assay type: cell-based; conditions: EAhy926, treatment of 3 hours, 10 nM
Procedure: In order to know whether the compound (I-1) perturbs the spatial organization of endothelial cells in structures similar to vascular capillaries, human endothelial cells (EAhy926) were treated immediately after cultivation on Matrigel® or after 24 hours of cultivation, in order to allow them to form vascular tubes.
In order to evaluate the antivascular activity of the compound (I-1), the EAhy926 cells were cultivated in 96-well culture plates covered beforehand with an extract of extracellular matrix (Matrigel™, BD Biosciences, Le Pont-de-Claix, France) in which they spontaneously form capillary tubes.
First of all, we measured the capacity of the compound (I-1) of inhibiting the formation of the capillary network. Matrigel™ is deposited in 96-well culture plates in an amount of 70 μL/well and left to incubate at 37° C. for 45 minutes in order to allow its polymerization. 15,000 cells suspended in 150 μL of culture medium are sown per well in each of the wells containing Matrigel™ in the absence or in the presence of different concentrations of the compound (I-1), with 3 wells per concentration. After 1 hour, 3 hours and 6 hours of incubation at 37° C., the cells are observed and photographed by means of an optical microscope of the TE2000 type (Nikon, France), equipped with a camera. […]

K562 cells = assay: Study of apoptosis (caspase-3/7 activity); assay type: cell-based, human; conditions: K562, 24 hours
Procedure: (§1) In order to specify whether the compound (I-1) causes cell death by apoptosis, the intracellular enzymatic activity of caspases 3 and 7 was evaluated in cultures of K562, HCT116 and MDA-MB 231 cells exposed for 24 hours to the action of the compound (I-1).
(§2) Apoptosis is measured by using the kit “Apo-one homogeneous caspase-3/7 assay” (Promega Co., WI, USA) by following the recommendations of the manufacturer. Briefly, the cells are sown in 96-well culture plates with 50,000 cells per well in 100 μL of culture medium. After 24 hours of incubation, the medium is replaced with 100 μL of culture medium containing different concentrations of the compound […] or 0.1% DMSO (negative control). After 24 hours of treatment, 100 μL of reagent containing the substrate of the caspase and the buffer of the reaction are added into each well. After 1 hour of incubation, the fluorescence emitted by the cell is measured at 527 nm with a microplate reader of the Victor type (Perkin-Elmer, USA).

MDA-MB 231 cells = assay: Study of apoptosis (caspase-3/7 activity); assay type: cell-based, human; conditions: MDA-MB 231, 24 hours
Procedure: as §1, §2

HCT116 cells = assay: Study of apoptosis (caspase-3/7 activity); assay type: cell-based, human; conditions: HCT116, 24 hours
Procedure: as §1, §2

[3] = biological target: T1, purified tubulin from pig brains (Sus scrofa, UniProt P02550+P02554); assay: Inhibition of polymerization of tubulin (turbidimetry); assay type: biochemical; conditions: pig brain tubulin, turbidimetry at 350 nm
T1 construct: from pig brains, where it forms 20-25% of the soluble proteins; from tissue; host or cells: pig brain
Procedure: Tests relating to the inhibition of polymerization of tubulin were carried out on compounds which had the best cytotoxic activities. These tests were carried out on purified tubulin by the Shelanski method (Shelanski, M. C.; Gaskin, F.; Cantor, C. R. Proc. Natl. Acad. Sci. USA, 1973, 70, 765-768) from pig brains, where it forms 20-25% of the soluble proteins. Purification method is based on temperature-dependent assembling-disassembling cycles. Polymerization of tubulin was tracked with turbidimetry according to the Gaskin method (Gaskin, F.; Cantor, C. R.; Shelanski, M. L. J. Bio. Mol. 1974, 89, 737) at a wavelength of 350 nm. The different samples were dissolved in DMSO and incubated for 10 minutes at 37° C. and then for 5 minutes at 0° C.
The CA-4 compound and DMSO were taken as references.
The tests have shown for these compounds an activity inhibiting polymerization of tubulin similar to the one of the reference compound CA-4 (of the order of only one micromolar concentration to a few tens of micromolar concentrations).

[4] = 3 hours after administration, DMXAA 27.5 mg/kg IP, (I-1) 45 mg/kg IV

T1 sequence (P02554 whole entry): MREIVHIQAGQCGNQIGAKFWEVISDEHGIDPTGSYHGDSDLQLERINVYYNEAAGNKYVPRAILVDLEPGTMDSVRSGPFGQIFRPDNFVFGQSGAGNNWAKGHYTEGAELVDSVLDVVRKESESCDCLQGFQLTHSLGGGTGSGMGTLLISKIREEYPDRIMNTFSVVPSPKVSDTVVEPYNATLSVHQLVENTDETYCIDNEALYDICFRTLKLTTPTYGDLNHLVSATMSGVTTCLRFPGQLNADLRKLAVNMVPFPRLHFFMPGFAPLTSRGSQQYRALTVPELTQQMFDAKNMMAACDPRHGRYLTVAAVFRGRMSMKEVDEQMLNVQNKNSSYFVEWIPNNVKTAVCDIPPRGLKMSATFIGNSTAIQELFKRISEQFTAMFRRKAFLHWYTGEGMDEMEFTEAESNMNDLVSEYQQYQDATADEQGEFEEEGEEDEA
T1 sequence (P02550 whole entry): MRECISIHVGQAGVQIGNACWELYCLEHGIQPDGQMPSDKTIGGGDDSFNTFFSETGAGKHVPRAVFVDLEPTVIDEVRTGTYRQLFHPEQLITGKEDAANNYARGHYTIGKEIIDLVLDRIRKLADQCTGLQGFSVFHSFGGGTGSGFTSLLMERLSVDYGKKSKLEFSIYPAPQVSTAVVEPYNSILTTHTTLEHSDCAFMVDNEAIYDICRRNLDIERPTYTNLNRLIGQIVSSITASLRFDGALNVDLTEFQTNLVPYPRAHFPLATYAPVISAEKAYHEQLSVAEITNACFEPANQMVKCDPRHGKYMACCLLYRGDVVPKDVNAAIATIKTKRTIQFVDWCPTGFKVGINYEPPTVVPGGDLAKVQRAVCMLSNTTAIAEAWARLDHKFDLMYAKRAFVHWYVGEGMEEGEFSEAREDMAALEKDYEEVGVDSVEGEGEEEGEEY

C=C(c1ccc(OC)c(O)c1)c1cc(OC)c(OC)c(OC)c1 [(I-1)]
Antivascular effect in vivo ([1]; 45 mg/kg IV): has an antivascular effect
Average of P0 [1, 4]: 1.53±0.82 arbitrary unit
Average of Rmax [1, 4]: 67.56±33.10 % of the NaCl control
Number of vascular tubes on Matrigel [2]: very significant decrease in the number of vascular tubes
Induction of apoptosis (caspases 3 and 7) (K562 cells): strong induction of apoptosis
Induction of apoptosis (caspases 3 and 7) (MDA-MB 231 cells): strong induction of apoptosis
Induction of apoptosis (caspases 3 and 7) (HCT116 cells): strong induction of apoptosis
IC50 [3]: 2.2 µM
